Assay results from article PMC5834492, “Antimycobacterial drug discovery using Mycobacteria-infected amoebae identifies anti-infectives and new molecular targets” (Scientific Reports, 2018).

What was measured:
M. marinum luxCDABE = type: cell-based, Mycobacterium marinum
[1] = test system: M. marinum in A. castellanii; type: cell-based, Mycobacterium marinum
[2] = test system: M. marinum in BV2 microglial cells; type: cell-based, Mycobacterium marinum
Mtb H37Rv in THP-1 = test system: Mtb H37Rv in THP-1; design: method as in Sorrentino et al, 2015; conditions: ref Sorrentino et al, 2015, cited from earlier work; for Intracelullar MIC90 in THP-1: THP1 / Mtb H37Rv infection assay; for Extracellular MIC90/ Inracellular MIC90: ratio
Mtb H37Rv = test system: Mtb H37Rv; design: method as in Sorrentino et al, 2015; conditions: ref Sorrentino et al, 2015; cited from earlier work

Fc1ccccc1-c1noc(N2CCN(Cc3ccc4c(c3)OCO4)CC2)n1 [GSK1434490A]
Antibiotic assays: M. marinum luxCDABE (M. marinum luxCDABE): 0.68
Intracellular infection assays: A. castellanii / M. marinum [1]: 1.24
Intracellular infection assays: BV2 / M. marinum [2]: 1.16
Growth inhibition / Cytotoxicity assays: D. discoideum GFP-ABD (D. discoideum GFP-ABD): 0.93
Growth inhibition / Cytotoxicity assays: BV2 cells (BV2 cells): False
Intracelullar MIC90 in THP-1 (Mtb H37Rv in THP-1): 5.55 µM
Extracellular MIC90/ Inracellular MIC90 (Mtb H37Rv in THP-1): 0.94
Extracellular MIC90 (Mtb H37Rv): 5.2 µM

CCc1ccc(C2CC(C(F)(F)F)n3ncc(C(=O)NCc4cccs4)c3N2)cc1 (stereo not shown) [GSK1589671A]
Antibiotic assays: M. marinum luxCDABE (M. marinum luxCDABE): 0.16
Intracellular infection assays: A. castellanii / M. marinum [1]: 1.63
Intracellular infection assays: BV2 / M. marinum [2]: 1.74
Growth inhibition / Cytotoxicity assays: D. discoideum GFP-ABD (D. discoideum GFP-ABD): 0.99
Growth inhibition / Cytotoxicity assays: BV2 cells (BV2 cells): False
Intracelullar MIC90 in THP-1 (Mtb H37Rv in THP-1): 0.21 µM
Extracellular MIC90/ Inracellular MIC90 (Mtb H37Rv in THP-1): 20.95
Extracellular MIC90 (Mtb H37Rv): 4.4 µM

CCc1ccc(C2CC(C(F)(F)F)n3ncc(C(=O)NCc4ccc(OC)cc4)c3N2)cc1 (stereo not shown) [GSK1589673A]
Antibiotic assays: M. marinum luxCDABE (M. marinum luxCDABE): 1.00
Intracellular infection assays: A. castellanii / M. marinum [1]: 1.34
Intracellular infection assays: BV2 / M. marinum [2]: 1.29
Growth inhibition / Cytotoxicity assays: D. discoideum GFP-ABD (D. discoideum GFP-ABD): 1.16
Growth inhibition / Cytotoxicity assays: BV2 cells (BV2 cells): False
Intracelullar MIC90 in THP-1 (Mtb H37Rv in THP-1): 0.61 µM
Extracellular MIC90/ Inracellular MIC90 (Mtb H37Rv in THP-1): 8.03
Extracellular MIC90 (Mtb H37Rv): 4.9 µM

COc1ccc2cc(C(=O)Nc3ccc(C4CCN(C)CC4)cc3)sc2c1 [GSK1635139A]
Antibiotic assays: M. marinum luxCDABE (M. marinum luxCDABE): 1.00
Intracellular infection assays: A. castellanii / M. marinum [1]: 1.28
Intracellular infection assays: BV2 / M. marinum [2]: 1.15
Growth inhibition / Cytotoxicity assays: D. discoideum GFP-ABD (D. discoideum GFP-ABD): 0.78
Growth inhibition / Cytotoxicity assays: BV2 cells (BV2 cells): False
Intracelullar MIC90 in THP-1 (Mtb H37Rv in THP-1): 50 µM
Extracellular MIC90/ Inracellular MIC90 (Mtb H37Rv in THP-1): 0.19
Extracellular MIC90 (Mtb H37Rv): 9.5 µM

O=C(Nc1nc(-c2ccccn2)cs1)c1cncn1-c1ccccc1 [GSK1691553A]
Antibiotic assays: M. marinum luxCDABE (M. marinum luxCDABE): 0.07
Intracellular infection assays: A. castellanii / M. marinum [1]: 1.03
Intracellular infection assays: BV2 / M. marinum [2]: 1.01
Growth inhibition / Cytotoxicity assays: D. discoideum GFP-ABD (D. discoideum GFP-ABD): 0.80
Growth inhibition / Cytotoxicity assays: BV2 cells (BV2 cells): False
Intracelullar MIC90 in THP-1 (Mtb H37Rv in THP-1): 50 µM
Extracellular MIC90/ Inracellular MIC90 (Mtb H37Rv in THP-1): 0.16
Extracellular MIC90 (Mtb H37Rv): 7.9 µM

O=C(N[C@@H](Cc1ccccc1)C(=O)Nc1ccccc1N1CCOCC1)c1cccs1 [GSK1729177A]
Antibiotic assays: M. marinum luxCDABE (M. marinum luxCDABE): 0.00
Intracellular infection assays: A. castellanii / M. marinum [1]: 0.64
Intracellular infection assays: BV2 / M. marinum [2]: 1.02
Growth inhibition / Cytotoxicity assays: D. discoideum GFP-ABD (D. discoideum GFP-ABD): 1.04
Growth inhibition / Cytotoxicity assays: BV2 cells (BV2 cells): True
Intracelullar MIC90 in THP-1 (Mtb H37Rv in THP-1): 50 µM
Extracellular MIC90/ Inracellular MIC90 (Mtb H37Rv in THP-1): 0.13
Extracellular MIC90 (Mtb H37Rv): 6.6 µM

O=C(NCc1ccccc1F)N1CCN(Cc2ccc(Br)s2)CC1 [GSK1758774A]
Antibiotic assays: M. marinum luxCDABE (M. marinum luxCDABE): 1.00
Intracellular infection assays: A. castellanii / M. marinum [1]: 1.13
Intracellular infection assays: BV2 / M. marinum [2]: 1.05
Growth inhibition / Cytotoxicity assays: D. discoideum GFP-ABD (D. discoideum GFP-ABD): 0.85
Growth inhibition / Cytotoxicity assays: BV2 cells (BV2 cells): False
Intracelullar MIC90 in THP-1 (Mtb H37Rv in THP-1): 5.55 µM
Extracellular MIC90/ Inracellular MIC90 (Mtb H37Rv in THP-1): 1.19
Extracellular MIC90 (Mtb H37Rv): 6.6 µM

COc1ccc(-c2ccc(Nc3cccc(S(=O)(=O)CCNCCc4cccs4)c3)nc2)cn1 [GSK1826089A]
Antibiotic assays: M. marinum luxCDABE (M. marinum luxCDABE): 0.085
Intracellular infection assays: A. castellanii / M. marinum [1]: 1.17
Intracellular infection assays: BV2 / M. marinum [2]: 1.09
Growth inhibition / Cytotoxicity assays: D. discoideum GFP-ABD (D. discoideum GFP-ABD): 0.69
Growth inhibition / Cytotoxicity assays: BV2 cells (BV2 cells): False
Intracelullar MIC90 in THP-1 (Mtb H37Rv in THP-1): 1.85 µM
Extracellular MIC90/ Inracellular MIC90 (Mtb H37Rv in THP-1): 4.11
Extracellular MIC90 (Mtb H37Rv): 7.6 µM

COc1ccc(CC(=O)Nc2c(-c3cccs3)nc3cc(C)ccn23)cc1 [GSK1857145A]
Antibiotic assays: M. marinum luxCDABE (M. marinum luxCDABE): 1.00
Intracellular infection assays: A. castellanii / M. marinum [1]: 1.19
Intracellular infection assays: BV2 / M. marinum [2]: 1.12
Growth inhibition / Cytotoxicity assays: D. discoideum GFP-ABD (D. discoideum GFP-ABD): 0.93
Growth inhibition / Cytotoxicity assays: BV2 cells (BV2 cells): False
Intracelullar MIC90 in THP-1 (Mtb H37Rv in THP-1): 5.55 µM
Extracellular MIC90/ Inracellular MIC90 (Mtb H37Rv in THP-1): 1.22
Extracellular MIC90 (Mtb H37Rv): 6.8 µM

Cc1ccc(SCCNC(=O)c2c(-c3ccccc3)noc2C)cc1 [GSK1863309A]
Antibiotic assays: M. marinum luxCDABE (M. marinum luxCDABE): 0.00
Intracellular infection assays: A. castellanii / M. marinum [1]: 1.09
Intracellular infection assays: BV2 / M. marinum [2]: 1.12
Growth inhibition / Cytotoxicity assays: D. discoideum GFP-ABD (D. discoideum GFP-ABD): 0.97
Growth inhibition / Cytotoxicity assays: BV2 cells (BV2 cells): False
Intracelullar MIC90 in THP-1 (Mtb H37Rv in THP-1): 16.65 µM
Extracellular MIC90/ Inracellular MIC90 (Mtb H37Rv in THP-1): 0.47
Extracellular MIC90 (Mtb H37Rv): 7.8 µM

O=C(C1CCN(c2nnc(-n3cccc3)s2)CC1)N1CCC(Cc2ccccc2)CC1 [GSK2032710A]
Antibiotic assays: M. marinum luxCDABE (M. marinum luxCDABE): 0.00
Intracellular infection assays: A. castellanii / M. marinum [1]: 1.06
Intracellular infection assays: BV2 / M. marinum [2]: 1.25
Growth inhibition / Cytotoxicity assays: D. discoideum GFP-ABD (D. discoideum GFP-ABD): 1.04
Growth inhibition / Cytotoxicity assays: BV2 cells (BV2 cells): False
Intracelullar MIC90 in THP-1 (Mtb H37Rv in THP-1): 0.61 µM
Extracellular MIC90/ Inracellular MIC90 (Mtb H37Rv in THP-1): 6.88
Extracellular MIC90 (Mtb H37Rv): 4.2 µM
